In the Kinase Knowledgebase extract (Sharma et al. 2016):
pIC50: −log10 of the molar value.

target: PIK3CD (Human) (UniProt O00329); assay: Enzyme Assay
Sequence (O00329 whole entry, looked up): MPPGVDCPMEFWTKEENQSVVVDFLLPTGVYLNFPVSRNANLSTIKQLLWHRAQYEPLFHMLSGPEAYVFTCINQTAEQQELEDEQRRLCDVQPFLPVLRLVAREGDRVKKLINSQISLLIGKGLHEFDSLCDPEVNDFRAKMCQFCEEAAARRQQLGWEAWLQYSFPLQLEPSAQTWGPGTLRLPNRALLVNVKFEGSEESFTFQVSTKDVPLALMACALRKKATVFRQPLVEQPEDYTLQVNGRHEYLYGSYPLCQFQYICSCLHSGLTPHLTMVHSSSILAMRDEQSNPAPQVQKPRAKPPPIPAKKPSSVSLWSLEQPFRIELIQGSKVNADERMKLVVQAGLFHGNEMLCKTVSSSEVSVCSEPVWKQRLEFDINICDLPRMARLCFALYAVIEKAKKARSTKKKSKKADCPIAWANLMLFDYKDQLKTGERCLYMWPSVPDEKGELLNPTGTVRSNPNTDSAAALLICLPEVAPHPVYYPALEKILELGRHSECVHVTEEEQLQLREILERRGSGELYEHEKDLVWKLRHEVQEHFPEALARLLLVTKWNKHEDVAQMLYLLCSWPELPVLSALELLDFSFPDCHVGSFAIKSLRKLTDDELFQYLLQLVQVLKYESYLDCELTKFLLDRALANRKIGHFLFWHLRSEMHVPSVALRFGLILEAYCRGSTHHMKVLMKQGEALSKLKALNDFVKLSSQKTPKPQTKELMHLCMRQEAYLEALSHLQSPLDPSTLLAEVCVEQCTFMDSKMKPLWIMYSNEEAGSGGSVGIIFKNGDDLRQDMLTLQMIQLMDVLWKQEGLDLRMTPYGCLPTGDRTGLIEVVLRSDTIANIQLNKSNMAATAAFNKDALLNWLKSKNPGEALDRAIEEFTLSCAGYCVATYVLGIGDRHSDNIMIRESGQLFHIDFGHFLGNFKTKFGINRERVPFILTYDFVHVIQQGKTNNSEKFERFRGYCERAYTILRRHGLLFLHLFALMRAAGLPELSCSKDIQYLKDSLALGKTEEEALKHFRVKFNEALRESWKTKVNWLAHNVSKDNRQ

Question: How did the pIC50 turn out when `C[C@H](Nc1nc(N)nc(N)c1C#N)c1nc2cccc(Cl)c2c(=O)n1-c1cc(C(F)F)cc(C(F)F)c1` was run?
Answer: 8.00 to 9.00

Question: With `CC(C)C[C@H](Nc1nc(N)nc(N)c1C#N)c1nc2cccc(Cl)c2c(=O)n1-c1cccc(F)c1` as the compound, how does the pIC50 read?
Answer: 8.00 to 9.00

Question: How did the pIC50 turn out when `CC[C@H](Nc1nc(N)nc(N)c1C#N)c1nc2c(F)cc(F)cc2c(=O)n1-c1cc(F)cc(F)c1` was run?
Answer: 7.30 to 8.00

Question: How did the pIC50 turn out when `C[C@H](Nc1nc(N)nc(N)c1C#N)c1nc2c(F)ccc(F)c2c(=O)n1-c1cccc(F)c1` was run?
Answer: 8.00 to 9.00

Question: `CC[C@H](Nc1nc(N)nc(N)c1C#N)c1nc2ccc(F)c(F)c2c(=O)n1-c1cc(F)cc(F)c1` was tested. Which pIC50 did it give?
Answer: 7.30 to 8.00

Question: How did the pIC50 turn out when `C[C@H](Nc1nc(N)nc(N)c1Cl)c1nc2c(F)ccc(Cl)c2c(=O)n1-c1ccccc1` was run?
Answer: 8.00 to 9.00

Question: How did the pIC50 turn out when `CC[C@H](Nc1nc(N)nc(N)c1C#N)c1nc2cccc(C(F)F)c2c(=O)n1-c1cc(F)cc(F)c1` was run?
Answer: 8.00 to 9.00

Question: `C[C@H](Nc1nc(N)nc(N)c1C#N)c1nc2c(F)ccc(C#N)c2c(=O)n1-c1ccccc1` was tested. Which pIC50 did it give?
Answer: 8.00 to 9.00

Question: How did the pIC50 turn out when `C[C@H](Nc1nc(N)nc(N)c1C#N)c1nc2ccc(F)c(F)c2c(=O)n1-c1cc(F)cc(F)c1` was run?
Answer: 7.30 to 8.00

Question: How did the pIC50 turn out when `C[C@H](Nc1nc(N)nc(N)c1C#N)c1nc2c(C#N)cc(F)cc2c(=O)n1-c1ccccc1` was run?
Answer: 8.00 to 9.00

Question: How did the pIC50 turn out when `C[C@H](Nc1nc(N)nc(N)c1C#N)c1nc2cccc(C#N)c2c(=O)n1-c1cc(F)cc(C(F)F)c1` was run?
Answer: 7.30 to 8.00

Question: `C[C@H](Nc1nc(N)nc(N)c1C#N)c1nc2ccc(F)cc2c(=O)n1-c1ccccc1` was tested. Which pIC50 did it give?
Answer: 8.00 to 9.00

Question: `C[C@H](Nc1nc(N)nc(N)c1C#N)c1nc2c(F)ccc(Cl)c2c(=O)n1-c1cc(F)cc(F)c1` was tested. Which pIC50 did it give?
Answer: ≥ 9.00

Question: With `C[C@H](Nc1nc(N)nc(N)c1C#N)c1nc2cccc(Br)c2c(=O)n1-c1ccccc1` as the compound, how does the pIC50 read?
Answer: ≥ 9.00

Question: How did the pIC50 turn out when `Cc1cccc2c(=O)n(-c3ccccc3)c([C@H](C)Nc3nc(N)nc(N)c3C#N)nc12` was run?
Answer: 8.00 to 9.00

Question: How did the pIC50 turn out when `C[C@H](Nc1nc(N)nc(N)c1C#N)c1nc2c(C#N)cc(F)cc2c(=O)n1-c1cc(F)cc(F)c1` was run?
Answer: 7.30 to 8.00

Question: With `C[C@H](Nc1nc(N)nc(N)c1C#N)c1nc2c(C#N)cccc2c(=O)n1-c1cc(F)cc(F)c1` as the compound, how does the pIC50 read?
Answer: 8.00 to 9.00

Question: `C[C@H](Nc1nc(N)nc(N)c1C#N)c1nc2c(F)ccc(Cl)c2c(=O)n1-c1cc(F)cc(C#N)c1` was tested. Which pIC50 did it give?
Answer: 7.30 to 8.00

Question: With `C[C@H](Nc1nc(N)nc(N)c1C#N)c1nc2c(F)cccc2c(=O)n1-c1cc(F)cc(F)c1` as the compound, how does the pIC50 read?
Answer: 8.00 to 9.00

Question: `CCc1cccc2c(=O)n(-c3cc(F)cc(F)c3)c([C@H](C)Nc3nc(N)nc(N)c3C#N)nc12` was tested. Which pIC50 did it give?
Answer: 7.30 to 8.00

Question: `C[C@H](Nc1nc(N)nc(N)c1C#N)c1nc2cccc(Cl)c2c(=O)n1-c1cc(F)cc(OC(F)(F)F)c1` was tested. Which pIC50 did it give?
Answer: 8.00 to 9.00

Question: `C[C@H](Nc1nc(N)nc(N)c1C#N)c1nc2cccc(Cl)c2c(=O)n1-c1cc(F)cc(Cl)c1` was tested. Which pIC50 did it give?
Answer: 8.00 to 9.00

Question: With `Cc1ccc(F)c2nc([C@H](C)Nc3nc(N)nc(N)c3C#N)n(-c3ccccc3)c(=O)c12` as the compound, how does the pIC50 read?
Answer: ≥ 9.00

Question: With `Cc1ccc(F)c2nc([C@H](C)Nc3nc(N)nc(N)c3C#N)n(-c3cc(F)cc(F)c3)c(=O)c12` as the compound, how does the pIC50 read?
Answer: ≥ 9.00

Question: With `C[C@H](Nc1nc(N)nc(N)c1C#N)c1nc2cccc(C(F)F)c2c(=O)n1-c1cccc(C#N)c1` as the compound, how does the pIC50 read?
Answer: 8.00 to 9.00

Question: `CC(C)c1cccc(-n2c([C@H](C)Nc3nc(N)nc(N)c3C#N)nc3cccc(Cl)c3c2=O)c1` was tested. Which pIC50 did it give?
Answer: 8.00 to 9.00

Question: With `C[C@H](Nc1nc(N)nc(N)c1C#N)c1nc2cccc(C(N)=O)c2c(=O)n1-c1cc(F)cc(F)c1` as the compound, how does the pIC50 read?
Answer: 7.30 to 8.00

Question: `COc1cc(-n2c([C@H](C)Nc3nc(N)nc(N)c3C#N)nc3cccc(Cl)c3c2=O)ccc1C` was tested. Which pIC50 did it give?
Answer: 7.30 to 8.00

Question: `Cc1cccc2c(=O)n(-c3cccc(C(F)(F)F)c3)c([C@H](C)Nc3nc(N)nc(N)c3C#N)nc12` was tested. Which pIC50 did it give?
Answer: 7.30 to 8.00

Question: `COC[C@@H](Nc1nc(N)nc(N)c1C#N)c1nc2cccc(Cl)c2c(=O)n1-c1cc(F)cc(F)c1` was tested. Which pIC50 did it give?
Answer: 8.00 to 9.00

Question: `C[C@H](Nc1nc(N)nc(N)c1C#N)c1nc2c(F)ccc(F)c2c(=O)n1-c1cc(F)cc(F)c1` was tested. Which pIC50 did it give?
Answer: 8.00 to 9.00

Question: `C[C@H](Nc1nc(N)nc(N)c1C#N)c1nc2ccccc2c(=O)n1-c1cc(F)cc(F)c1` was tested. Which pIC50 did it give?
Answer: 7.30 to 8.00

Question: How did the pIC50 turn out when `C[C@H](Nc1nc(N)nc(N)c1C#N)c1nc2cccc(S(C)(=O)=O)c2c(=O)n1-c1cccc(F)c1` was run?
Answer: 8.00 to 9.00

Question: How did the pIC50 turn out when `C[C@H](Nc1nc(N)nc(N)c1C#N)c1nc2cccc(Cl)c2c(=O)n1-c1cccc(C#N)c1` was run?
Answer: 8.00 to 9.00

Question: With `C[C@H](Nc1nc(N)nc(N)c1C#N)c1nc2cccc(F)c2c(=O)n1-c1cccc(F)c1` as the compound, how does the pIC50 read?
Answer: 8.00 to 9.00

Question: With `COc1cc(-n2c([C@H](C)Nc3nc(N)nc(N)c3C#N)nc3cccc(Cl)c3c2=O)ccc1F` as the compound, how does the pIC50 read?
Answer: 8.00 to 9.00

Question: `C[C@H](Nc1nc(N)nc(N)c1C#N)c1nc2c(F)cccc2c(=O)n1-c1ccccc1` was tested. Which pIC50 did it give?
Answer: 8.00 to 9.00

Question: How did the pIC50 turn out when `C[C@H](Nc1nc(N)nc(N)c1C#N)c1nc2cccc(F)c2c(=O)n1-c1cc(F)cc(C(F)F)c1` was run?
Answer: 7.30 to 8.00

Question: `Cc1cccc2c(=O)n(-c3cc(F)cc(F)c3)c([C@H](C)Nc3nc(N)nc(N)c3C#N)nc12` was tested. Which pIC50 did it give?
Answer: 8.00 to 9.00

Question: With `C[C@H](Nc1nc(N)nc(N)c1C#N)c1nc2cccc(F)c2c(=O)n1-c1cc(F)cc(F)c1` as the compound, how does the pIC50 read?
Answer: 8.00 to 9.00

Question: `C[C@H](Nc1ncnc(N)c1C#N)c1nc2cccc(Cl)c2c(=O)n1-c1ccccc1` was tested. Which pIC50 did it give?
Answer: ≥ 9.00

Question: `C[C@H](Nc1nc(N)nc(N)c1C#N)c1nc2cccc(F)c2c(=O)n1-c1cc(Cl)cc(Cl)c1` was tested. Which pIC50 did it give?
Answer: 7.30 to 8.00
